Reference: publication PMC5218480 (PLoS ONE, 2017)

Test system: MV-4-11 cells
Experiment: Gene expression microarray analysis (Affymetrix PrimeView) and GSEA
Type: cell-based, human
Set-up: RFU PODN (11730768_x_at) / Fold change /veh PODN (11730768_x_at) / RFU LINC00158 (11744669_a_at) / Fold change /veh LINC00158 (11744669_a_at) / RFU DUSP10 (11751237_a_at) / Fold change /veh DUSP10 (11751237_a_at) / RFU ID3 (11757404_x_at) / Fold change /veh ID3 (11757404_x_at) / RFU PLEKHG5 (11737974_s_at) / Fold change /veh PLEKHG5 (11737974_s_at) / RFU LRRC4B (11730491_at) / Fold change /veh LRRC4B (11730491_at) / RFU GIMAP4 (11747438_a_at) / Fold change /veh GIMAP4 (11747438_a_at) / RFU KRT8 (11758183_x_at) / Fold change /veh KRT8 (11758183_x_at) / RFU CNN1 (11734310_a_at) / Fold change /veh CNN1 (11734310_a_at) / RFU VPS37D (11726825_at) / Fold change /veh VPS37D (11726825_at) / RFU C10orf10 (11716522_x_at) / Fold change /veh C10orf10 (11716522_x_at) / RFU KIR2DL2 /// KIR2DL4 /// KIR2DL5A /// KIR2DL5B /// KIR2DS1 /// KIR2DS2 /// KIR2DS3 /// KIR2DS4 /// KIR3DL3 /// KIR3DL3 /// KIR3DS1 (11738374_at) / Fold change /veh KIR2DL2 /// KIR2DL4 /// KIR2DL5A /// KIR2DL5B /// KIR2DS1 /// KIR2DS2 /// KIR2DS3 /// KIR2DS4 /// KIR3DL3 /// KIR3DL3 /// KIR3DS1 (11738374_at) / RFU C1QL1 (11718748_at) / Fold change /veh C1QL1 (11718748_at) / RFU TMPRSS4 (11747572_a_at) / Fold change /veh TMPRSS4 (11747572_a_at) / RFU HAMP (11756126_x_at) / Fold change /veh HAMP (11756126_x_at) / RFU RNFT2 (11725882_a_at) / Fold change /veh RNFT2 (11725882_a_at) / RFU NR4A2 (11747474_a_at) / Fold change /veh NR4A2 (11747474_a_at) / RFU ABCC12 (11746883_a_at) / Fold change /veh ABCC12 (11746883_a_at) / RFU TMEM136 (11760407_x_at) / Fold change /veh TMEM136 (11760407_x_at) / RFU CLDN22 /// WWC2 (11732394_at) / Fold change /veh CLDN22 /// WWC2 (11732394_at) / RFU HLA-DPB1 (11760878_x_at) / Fold change /veh HLA-DPB1 (11760878_x_at) / RFU SPINT1 (11716480_a_at) / Fold change /veh SPINT1 (11716480_a_at) / RFU GAP43 (11754022_s_at) / Fold change /veh GAP43 (11754022_s_at) / RFU A4GNT (11735810_at) / Fold change /veh A4GNT (11735810_at) / RFU PRB3 (11715151_x_at) / Fold change /veh PRB3 (11715151_x_at) / RFU TUBB4B (11761932_at) / Fold change /veh TUBB4B (11761932_at) / RFU CAPN14 (11732068_a_at) / Fold change /veh CAPN14 (11732068_a_at) / RFU TMCC2 (11721928_a_at) / Fold change /veh TMCC2 (11721928_a_at) / RFU IRGQ (11745062_a_at) / Fold change /veh IRGQ (11745062_a_at) / RFU FAM174B (11720279_a_at) / Fold change /veh FAM174B (11720279_a_at) / RFU TMPRSS4 (11748680_a_at) / Fold change /veh TMPRSS4 (11748680_a_at) / RFU FAM212B (11763350_a_at) / Fold change /veh FAM212B (11763350_a_at) / RFU PLEKHG5 (11743358_a_at) / Fold change /veh PLEKHG5 (11743358_a_at) / RFU ZSCAN30 (11745921_a_at) / Fold change /veh ZSCAN30 (11745921_a_at) / RFU CMKLR1 (11741424_a_at) / Fold change /veh CMKLR1 (11741424_a_at) / RFU LOC101060620 /// MAPK8IP1 (11723275_at) / Fold change /veh LOC101060620 /// MAPK8IP1 (11723275_at) / RFU SPTSSB (11747773_x_at) / Fold change /veh SPTSSB (11747773_x_at) / RFU PRSS12 (11739890_at) / Fold change /veh PRSS12 (11739890_at) / RFU BIN1 (11741810_x_at) / Fold change /veh BIN1 (11741810_x_at) / RFU WNT11 (11732464_a_at) / Fold change /veh WNT11 (11732464_a_at) / RFU C10orf10 (11716521_a_at) / Fold change /veh C10orf10 (11716521_a_at) / RFU C5orf56 (11738089_at) / Fold change /veh C5orf56 (11738089_at) / RFU CYB561 (11721691_x_at) / Fold change /veh CYB561 (11721691_x_at) / RFU ANKRD19P (11752326_a_at) / Fold change /veh ANKRD19P (11752326_a_at) / RFU OR2T12 /// OR2T33 /// OR2T8 (11738714_s_at) / Fold change /veh OR2T12 /// OR2T33 /// OR2T8 (11738714_s_at) / RFU VCAN (11748164_a_at) / Fold change /veh VCAN (11748164_a_at) / RFU JSRP1 (11732532_at) / Fold change /veh JSRP1 (11732532_at) / RFU KRTAP10-11 (11738290_x_at) / Fold change /veh KRTAP10-11 (11738290_x_at) / RFU MYO3A (11730013_a_at) / Fold change /veh MYO3A (11730013_a_at) / RFU EBF3 (11725865_a_at) / Fold change /veh EBF3 (11725865_a_at) / RFU CAMK2N1 (11719241_x_at) / Fold change /veh CAMK2N1 (11719241_x_at) / RFU C5orf56 (11738088_a_at) / Fold change /veh C5orf56 (11738088_a_at) / RFU OLFML3 (11715873_a_at) / Fold change /veh OLFML3 (11715873_a_at) / RFU LOC100653217 /// NTM (11731650_a_at) / Fold change /veh LOC100653217 /// NTM (11731650_a_at) / RFU MAPK11 (11762145_a_at) / Fold change /veh MAPK11 (11762145_a_at) / RFU FIZ1 (11724087_x_at) / Fold change /veh FIZ1 (11724087_x_at) / RFU OASL (11726364_x_at) / Fold change /veh OASL (11726364_x_at) / RFU SOX15 (11748057_x_at) / Fold change /veh SOX15 (11748057_x_at) / RFU CD79A (11719716_a_at) / Fold change /veh CD79A (11719716_a_at) / RFU HIST1H1D (11736915_at) / Fold change /veh HIST1H1D (11736915_at) / RFU CASKIN2 (11723855_a_at) / Fold change /veh CASKIN2 (11723855_a_at) / RFU LOC730098 (11760151_x_at) / Fold change /veh LOC730098 (11760151_x_at) / RFU OR4N2 (11742367_at) / Fold change /veh OR4N2 (11742367_at) / RFU PRRT2 (11749266_a_at) / Fold change /veh PRRT2 (11749266_a_at) / RFU SNX32 (11753110_a_at) / Fold change /veh SNX32 (11753110_a_at) / RFU CDHR5 (11726645_a_at) / Fold change /veh CDHR5 (11726645_a_at) / RFU RCAN1 (11760418_a_at) / Fold change /veh RCAN1 (11760418_a_at) / RFU FAM167A (11723789_a_at) / Fold change /veh FAM167A (11723789_a_at) / RFU FAM26E (11764081_at) / Fold change /veh FAM26E (11764081_at) / RFU ISYNA1 (11749810_s_at) / Fold change /veh ISYNA1 (11749810_s_at) / RFU ACY1 (11761880_at) / Fold change /veh ACY1 (11761880_at) / RFU 11764098_at / Fold change /veh 11764098_at / RFU SAMD14 (11745864_x_at) / Fold change /veh SAMD14 (11745864_x_at) / RFU NPB (11741838_a_at) / Fold change /veh NPB (11741838_a_at) / RFU TMPRSS6 (11731388_a_at) / Fold change /veh TMPRSS6 (11731388_a_at) / RFU KRTAP10-2 (11738614_at) / Fold change /veh KRTAP10-2 (11738614_at) / RFU ARHGAP8 /// PRR5-ARHGAP8 (11727945_x_at) / Fold change /veh ARHGAP8 /// PRR5-ARHGAP8 (11727945_x_at) / RFU KRTAP5-7 /// NADSYN1 (11734609_at) / Fold change /veh KRTAP5-7 /// NADSYN1 (11734609_at) / RFU RASL12 (11751679_a_at) / Fold change /veh RASL12 (11751679_a_at) / RFU CDKN2B (11736163_a_at) / Fold change /veh CDKN2B (11736163_a_at) / RFU PRF1 (11729649_at) / Fold change /veh PRF1 (11729649_at) / RFU, ZNF638 /// ZNF638-IT1 / Fold change vs veh, ZNF638 /// ZNF638-IT1 / RFU, PANK3 / Fold change vs veh, PANK3 / RFU, SH3YL1 / Fold change vs veh, SH3YL1 / RFU, ZEB2 / Fold change vs veh, ZEB2 / RFU, NRIP1 / Fold change vs veh, NRIP1 / RFU, PTTG1IP / Fold change vs veh, PTTG1IP / RFU, CAPN2 / Fold change vs veh, CAPN2 / RFU, MED14 / Fold change vs veh, MED14 / RFU, SNORA58 / Fold change vs veh, SNORA58 / RFU, C1orf63 / Fold change vs veh, C1orf63 / RFU, LRRFIP1 / Fold change vs veh, LRRFIP1 / RFU, NDUFAF7 / Fold change vs veh, NDUFAF7 / RFU, SLC12A2 / Fold change vs veh, SLC12A2 / RFU, IBTK / Fold change vs veh, IBTK / RFU, ESF1 / Fold change vs veh, ESF1 / Fold change vs veh, TMEM50B / RFU, TAOK1 / Fold change vs veh, TAOK1 / RFU, ACBD3 / Fold change vs veh, ACBD3 / RFU, TMA16 / Fold change vs veh, TMA16 / RFU, RWDD3 / Fold change vs veh, RWDD3 / RFU, BCAT1 / Fold change vs veh, BCAT1 / RFU, EDEM3 / Fold change vs veh, EDEM3 / RFU, TMEM33 / Fold change vs veh, TMEM33 / RFU, WDR75 / Fold change vs veh, WDR75 / RFU, AHCTF1 / Fold change vs veh, AHCTF1 / RFU, TFRC / Fold change vs veh, TFRC / RFU, ZDHHC17 / Fold change vs veh, ZDHHC17 / RFU, NOM1 / Fold change vs veh, NOM1 / RFU, ARL8B / Fold change vs veh, ARL8B / RFU, ZBTB11 / Fold change vs veh, ZBTB11 / RFU, TAMM41 / Fold change vs veh, TAMM41 / RFU, KIAA1704 /// LOC100996395 / Fold change vs veh, KIAA1704 /// LOC100996395 / RFU, ING1 / Fold change vs veh, ING1 / RFU, TRMT61B / Fold change vs veh, TRMT61B / RFU, FUBP3 / Fold change vs veh, FUBP3 / RFU, TP53 / Fold change vs veh, TP53 / RFU, TNKS2 / Fold change vs veh, TNKS2 / RFU, ZFP14 / Fold change vs veh, ZFP14 / RFU, ACTR2 / Fold change vs veh, ACTR2 / RFU, PPP3R1 / Fold change vs veh, PPP3R1 / RFU, PIK3R1 / Fold change vs veh, PIK3R1 / RFU, HNRNPA1 / Fold change vs veh, HNRNPA1 / RFU, RNF170 / Fold change vs veh, RNF170 / RFU, ZNF28 / Fold change vs veh, ZNF28 / RFU, RNGTT / Fold change vs veh, RNGTT / RFU, OGT / Fold change vs veh, OGT / RFU, BRD1 / Fold change vs veh, BRD1 / RFU, MARS / Fold change vs veh, MARS / RFU, ZNF655 / Fold change vs veh, ZNF655 / RFU, FAHD1 / Fold change vs veh, FAHD1 / RFU, BDP1 / Fold change vs veh, BDP1 / RFU, LRRCC1 / Fold change vs veh, LRRCC1 / RFU, ARID1A / Fold change vs veh, ARID1A / RFU, ZNF146 / Fold change vs veh, ZNF146 / RFU, ZNF330 / Fold change vs veh, ZNF330 / RFU, GPN3 / Fold change vs veh, GPN3 / RFU, C9orf123 / Fold change vs veh, C9orf123 / RFU, N4BP2L2 / Fold change vs veh, N4BP2L2 / RFU, ARFIP1 / Fold change vs veh, ARFIP1 / RFU, FAM179B / Fold change vs veh, FAM179B / RFU, BCL10 / Fold change vs veh, BCL10 / RFU, UHRF1BP1L / Fold change vs veh, UHRF1BP1L / RFU, BET1 / Fold change vs veh, BET1 / RFU, CNOT2 / Fold change vs veh, CNOT2 / RFU, ZNF268 / Fold change vs veh, ZNF268 / Fold change vs veh, ZNF507 / RFU, DGCR2 / Fold change vs veh, DGCR2 / RFU, WDSUB1 / Fold change vs veh, WDSUB1 / Fold change vs veh, HSP90B1 /// MIR3652 / RFU, ADSS / Fold change vs veh, ADSS / RFU, GK / Fold change vs veh, GK / RFU, ZNF148 / Fold change vs veh, ZNF148 / RFU, TAF9 / Fold change vs veh, TAF9 / RFU, SLC1A5 / Fold change vs veh, SLC1A5 / RFU, SLMO2 / Fold change vs veh, SLMO2 / RFU, ABCC4 / Fold change vs veh, ABCC4 / RFU, LOC101060439 /// RAP1B / Fold change vs veh, LOC101060439 /// RAP1B / RFU, RFX7 / Fold change vs veh, RFX7 / RFU, GTPBP10 / Fold change vs veh, GTPBP10 / RFU, CNEP1R1 / Fold change vs veh, CNEP1R1 / RFU, BIVM-ERCC5 /// ERCC5 / Fold change vs veh, BIVM-ERCC5 /// ERCC5 / RFU, ILF3 / Fold change vs veh, ILF3 / RFU 11762660_at / Fold change /veh 11762660_at / RFU VCAN (11757783_s_at) / Fold change /veh VCAN (11757783_s_at) / RFU DDX43 (11728927_at) / Fold change /veh DDX43 (11728927_at) / RFU KRT8 (11758188_x_at) / Fold change /veh KRT8 (11758188_x_at) / RFU NKD1 (11759106_at) / Fold change /veh NKD1 (11759106_at) / RFU SRD5A1 (11742802_a_at) / Fold change /veh SRD5A1 (11742802_a_at) / RFU TPSAB1 /// TPSB2 (11721975_s_at) / Fold change /veh TPSAB1 /// TPSB2 (11721975_s_at) / RFU GSTM3 (11746129_a_at) / Fold change /veh GSTM3 (11746129_a_at) / RFU IL23R (11737362_x_at) / Fold change /veh IL23R (11737362_x_at) / RFU TMEM51 (11727254_a_at) / Fold change /veh TMEM51 (11727254_a_at) / RFU PIWIL2 (11732686_x_at) / Fold change /veh PIWIL2 (11732686_x_at) / RFU ORM1 (11744905_x_at) / Fold change /veh ORM1 (11744905_x_at) / RFU CCDC152 (11743942_at) / Fold change /veh CCDC152 (11743942_at) / RFU ECM1 (11717891_a_at) / Fold change /veh ECM1 (11717891_a_at) / RFU IL23R (11748794_a_at) / Fold change /veh IL23R (11748794_a_at) / RFU TNFAIP8L3 (11732012_x_at) / Fold change /veh TNFAIP8L3 (11732012_x_at) / RFU MBOAT4 (11741988_at) / Fold change /veh MBOAT4 (11741988_at) / RFU 11764193_at / Fold change /veh 11764193_at / RFU TMEM53 (11763286_at) / Fold change /veh TMEM53 (11763286_at) / RFU MAGEB2 (11727129_at) / Fold change /veh MAGEB2 (11727129_at) / RFU TMEM200A (11744735_a_at) / Fold change /veh TMEM200A (11744735_a_at) / RFU CCDC152 (11751479_a_at) / Fold change /veh CCDC152 (11751479_a_at) / RFU FAM211A (11726209_a_at) / Fold change /veh FAM211A (11726209_a_at) / RFU RGS16 (11746705_a_at) / Fold change /veh RGS16 (11746705_a_at) / RFU VCAN (11755009_s_at) / Fold change /veh VCAN (11755009_s_at) / RFU RHOB (11743442_s_at) / Fold change /veh RHOB (11743442_s_at) / RFU RGS16 (11720943_a_at) / Fold change /veh RGS16 (11720943_a_at) / RFU RGS16 (11720944_at) / Fold change /veh RGS16 (11720944_at) / RFU, VPS4B / Fold change vs veh, VPS4B / RFU, CREB1 / Fold change vs veh, CREB1 / RFU, DNAJC13 / Fold change vs veh, DNAJC13 / RFU, GNAQ / Fold change vs veh, GNAQ / RFU, CDK5R1 / Fold change vs veh, CDK5R1 / RFU, ZRANB3 / Fold change vs veh, ZRANB3 / RFU, CUL4A / Fold change vs veh, CUL4A / RFU, CCNY / Fold change vs veh, CCNY / RFU, UFL1 / Fold change vs veh, UFL1 / RFU, COG3 / Fold change vs veh, COG3 / RFU, DIAPH2 / Fold change vs veh, DIAPH2 / RFU, SKA2 / Fold change vs veh, SKA2 / RFU, AFF3 / Fold change vs veh, AFF3 / RFU, LMF1 / Fold change vs veh, LMF1 / RFU, IPO11 / Fold change vs veh, IPO11 / RFU, DFFB / Fold change vs veh, DFFB / RFU, FOXP1 / Fold change vs veh, FOXP1 / RFU, CARD8 / Fold change vs veh, CARD8 / RFU, STRN3 / Fold change vs veh, STRN3 / RFU, ADK / Fold change vs veh, ADK / RFU, RASSF2 / Fold change vs veh, RASSF2 / RFU, WIPF1 / Fold change vs veh, WIPF1 / RFU, LARP1B / Fold change vs veh, LARP1B / RFU, RASA1 / Fold change vs veh, RASA1 / RFU, RB1 / Fold change vs veh, RB1 / RFU, PPFIA1 / Fold change vs veh, PPFIA1 / RFU, MAT2A / Fold change vs veh, MAT2A / RFU, CCT5 / Fold change vs veh, CCT5 / RFU, WDR92 / Fold change vs veh, WDR92 / RFU, CUX1 / Fold change vs veh, CUX1 / RFU, TTC7A / Fold change vs veh, TTC7A / RFU, TMEM135 / Fold change vs veh, TMEM135 / RFU, DEPTOR / Fold change vs veh, DEPTOR / RFU, CPM / Fold change vs veh, CPM / RFU, DNAJB6 / Fold change vs veh, DNAJB6 / RFU, CACNA2D3 / Fold change vs veh, CACNA2D3 / RFU, DTX4 / Fold change vs veh, DTX4 / RFU, TFCP2 / Fold change vs veh, TFCP2 / RFU, GMCL1 /// GMCL1P1 / Fold change vs veh, GMCL1 /// GMCL1P1 / RFU, AEBP2 / Fold change vs veh, AEBP2 / RFU, SNHG1 /// SNORD22 /// SNORD25 /// SNORD26 /// SNORD27 /// SNORD28 /// SNORD29 /// SNORD31 / Fold change vs veh, SNHG1 /// SNORD22 /// SNORD25 /// SNORD26 /// SNORD27 /// SNORD28 /// SNORD29 /// SNORD31 / Fold change (Aza/veh), C12orf56 (ProbeSet 11735607_a_at) / Fold change (ACY-1035/veh), C12orf56 (ProbeSet 11735607_a_at) / Fold change (Aza/veh), FGFR1OP (ProbeSet 11751329_s_at) / Fold change (ACY-1035/veh), FGFR1OP (ProbeSet 11751329_s_at) / Fold change (Aza/veh), VPS36 (ProbeSet 11739960_a_at) / Fold change (ACY-1035/veh), VPS36 (ProbeSet 11739960_a_at) / RFU SYPL1 (11715823_x_at) / Fold change /veh SYPL1 (11715823_x_at) / RFU IGFBP7 (11715501_s_at) / Fold change /veh IGFBP7 (11715501_s_at) / RFU REEP3 (11722064_at) / Fold change /veh REEP3 (11722064_at) / RFU IGLL1 (11728026_x_at) / Fold change /veh IGLL1 (11728026_x_at): dose or concentration left out as unconfirmed
Conditions: MV-4-11 cells, 48 hours

With `Nc1ccc(-c2cccs2)cc1NC(=O)c1ccc2c(c1)cc(C1CC1)n2CCN1CCOCC1` [ACY-1035] the “RFU OLFML3 (11715873_a_at)” value was 13.14 RFU.
